Measured values taken from US11192849B2, “Compounds, compositions, and methods for modulating ferroptosis and treating excitotoxic disorders” (THE TRUSTEES OF COLUMBIA UNIVERSITY IN THE CITY OF NEW YORK, priority 2013, dated 2021).

Key:
HT-1080 cells [1] = test: Mitochondrial ROS (MitoSOX) in HT-1080 cells; type: cell-based, human; conditions: rotenone 250 nM, 3 hr, Fer-1 1 μM
Description: 200,000 HT-1080 cells were seeded into 6-well dishes (Corning). The next day, cells were treated with +/−rotenone +/−ferrostatin-1 for 3 hours (for MitoSOX experiments) or +/−STS +/−ferrostatin-1 for 4 hours (for 10-N-nonylacridine orange [NAO] experiments), harvested by trypsinization and analyzed as follows. For the analysis of mitochondrial ROS, cells were incubated with 5 μM MitoSOX (Molecular Probes/Invitrogen) in HBSS for 10 minutes in the dark at 37° C. […] MitoSOX data were collected in the FL2 channel and NAO data was collected in the FL1 channel. Data are from three independent biological replicates of each experiment. Data were analyzed by one-way ANOVA with Bonferroni's post-hoc test.
A minimum of 10,000 cells were analyzed per condition.

[2] = test system: C57BL/6 mice, kidney ischemia-reperfusion injury; test: Kidney model of ischemia-reperfusion injury (IRI); type: in vivo
Description: As an initial in vivo study, the effects of Fer-1 and SRS16-86 on serum creatinine, a marker of kidney damage, were evaluated in an ischemia reperfusion injury (IRI) model of kidney failure (FIG. 21).
Organs were dissected as indicated in each experiment and infused with 4% (vol/vol) neutral-buffered formaldehyde, fixated for 48 h, dehydrated in a graded ethanol series and xylene, and finally embedded in paraffin. Stained sections were analyzed using an Axio Imager microscope (Zeiss). Kidney damage was quantified by two experienced pathologists in a double-blind manner on a scale ranging from 0 (unaffected tissue) to 10 (severe organ damage). The following parameters were chosen as indicative of morphological damage to the kidney after ischemia-reperfusion injury (IRI): brush border loss, red blood cell extravasation, tubule dilatation, tubule degeneration, tubule necrosis, and tubular cast formation. These parameters were evaluated on a scale of 0-10, which ranged from not present (0), mild (1-4), moderate (5 or 6), severe (7 or 8), to very severe (9 or 10). Each parameter was determined on at least four different animals.
Induction of kidney IRI was performed via a midline abdominal incision and a bilateral renal pedicle clamping for either 40 min (severe IRI, or “lethal-to-WT” IRI) or 50 min (ultra-severe IRI) using microaneurysm clamps (Aesculab). Throughout the surgical procedure, the body temperature was maintained between 36° C. and 37° C. by continuous monitoring using a temperature-controlled self-regulated heating system (Fine Science Tools). After removal of the clamps, reperfusion of the kidneys was confirmed visually. The abdomen was closed in two layers using standard 6-0 sutures. Sham-operated mice underwent the identical surgical procedures, except that microaneurysm clamps were not applied. To maintain fluid balance, all of the mice were supplemented with 1 mL of prewarmed PBS administered intraperitoneally directly after surgery. All mice were killed 48 h after reperfusion for each experiment. […] All ischemia-reperfusion experiments were performed in a double-blinded manner.

mice, LPS-induced shock = test: LPS-induced lethal shock; type: in vivo, mouse; conditions: Fer-1 5 mg/kg i.p. 30 min before LPS
Description: Mice were injected intraperitoneally (i.p.) with 15 mg/kg Escherichia coli O111:B4 LPS (Sigma-Aldrich). Mice were pretreated by an i.p. injection of 5 mg/kg ethyl 3-amino-4-(cyclohexylamino)benzoate (Fer-1; Matrix Scientific), 10 mg/kg [5-((7-Cl-1H-indol-3-yl)methyl)-3-methylimidazolidine2,4-dione] (Nec-1s; synthesized in house), a combination of Fer-1 and Nec-1s, or vehicle (1% DMSO in PBS) 30 min before the LPS challenge. Rectal body temperature and survival rates were monitored daily up to 96 h. Experiments were approved by the animal ethics committee of Ghent University.

HT-1080 cells [3] = test: Mitochondrial cardiolipin peroxidation (10-N-nonylacridine orange) in HT-1080 cells; type: cell-based, human; conditions: STS 100 nM, NAO probe
Description: 200,000 HT-1080 cells were seeded into 6-well dishes (Corning). […] For the analysis of mitochondrial ROS, cells were incubated with 5 μM MitoSOX (Molecular Probes/Invitrogen) in HBSS for 10 minutes in the dark at 37° C. For the analysis of mitochondrial cardiolipin peroxidation, cells were incubated with NAO dissolved to a final concentration of 25 ng/mL in HBSS for 10 minutes in the dark at 37° C. Cells were then washed once in HBSS and measurements were subsequently acquired using an flow cytometer (BD/Accuri C6) equipped with a 488 nm laser for excitation of fluorophores. MitoSOX data were collected in the FL2 channel and NAO data was collected in the FL1 channel. Data are from three independent biological replicates of each experiment. Data were analyzed by one-way ANOVA with Bonferroni's post-hoc test.

HT-1080 cells [4] = test: Acridine orange relocalization (lysosomal membrane permeabilization) in HT-1080 cells; type: cell-based, human; conditions: acridine orange re-localization
Description: 200,000 HT-1080 cells were seeded into 6-well dishes (Corning). The next day, cells were incubated with 25 ng/mL of AO for 15 minutes, then medium was removed and cells were incubated in growth medium for 15 minutes. […] Relocalization of AO from lysosomes (discrete red puncta) to the cytosol (diffuse green color) was determined using an EVOS fl digital inverted fluorescent microscope (Advanced Microscopy Group) equipped with GFP (ex/em 470/525) and RFP (ex/em 531/593) light cubes.

[5] = test system: mice, CaOx-induced nephropathy; test: Acute oxalate nephropathy model; type: in vivo, mouse; conditions: Ferrostatin-1 10 mg/kg i.p.
Description: Mice were divided into two groups. One group received vehicle injections and another group received Ferrostatin-1 (10 mg/kg i.p.). Then, 15 min later, both groups were given a single i.p. injection of 100 mg/kg sodium oxalate and 3% sodium oxalate in drinking water. Blood samples and kidneys were harvested after 24 h. Kidneys were kept at −80° C. for protein isolation and at −20° C. for RNA isolation. One part of the kidney was also kept in formalin to be embedded in paraffin for histological analysis. Kidney sections (2 μm) were stained with periodic acid-Schiff (PAS) reagent. Tubular injury was scored by assessing the percentage of necrotic tubules. Ly6B.2+ neutrophils were identified by immunostaining (clone 7/4; Serotec). Pizzolato stain was used to visualize CaOx crystals, and crystal deposit formation in the kidney was evaluated as described previously (Mulay et al., 2013), using the following point values: 0, no deposits; 1, crystals in papillary tip; 2, crystals in cortical medullary junction; 3, crystals in cortex. […] Serum creatinine and blood urea nitrogen were measured using Creatinine FS kit and Urea FS kit (both from DiaSys Diagnostic Systems) according to the manufacturer's protocol. Neutrophil infiltrates were counted in 15 high-power fields (hpfs) per section. For real-time quantitative RT-PCR, total RNA was isolated from kidneys using a Qiagen RNA extraction kit following the manufacturer's instructions. After quantification, RNA quality was assessed using agarose gels. […] Real-time quantitative RT-PCR (TaqMan) was performed using SYBR-Green PCR master mix and analyzed with a Light Cycler 480 (Roche). […] The expression of KIM-1, IL-6, CXCL-2, and NF-κB p65 was analyzed using the following primers: Kim-1 forward, 5′-[…]-3′ (SEQ ID NO:17); Kim-1 reverse, 5′-[…]-3′ (SEQ ID NO:18); IL-6 forward, 5′-[…]-3′ (SEQ ID NO:19); IL-6 reverse, 5′-[…]-3′ (SEQ ID NO:20); CXCL-2 forward, 5′-[…]-3′ (SEQ ID NO:21); CXCL-2 reverse, 5′-[…]-3′ (SEQ ID NO:22); NF-κB p65 forward, 5′-[…]-3′ (SEQ ID NO:23); NF-κB p65 reverse, 5′-[…]-3′ (SEQ ID NO:24).

SMILES: CCOC(=O)c1ccc(NC2CCCCC2)c(N)c1 [SRS8-28 (Fer-1), ethyl 3-amino-4-(cyclohexylamino)benzoate]
- accumulation of mitochondrial superoxide in response to rotenone (HT-1080 cells [1]): did not prevent
- serum creatinine in IRI model of kidney failure ([2]; 2 mg/kg IP 30 minutes prior to induction of IRI): effective
- functional acute renal failure and structural organ damage after severe IRI ([2]; 40 min ischemia, 48 h after reperfusion, 2 mg/kg i.p.): protected from functional acute renal failure
- temperature drop and survival after LPS (mice, LPS-induced shock): no difference compared with vehicle-treated mice was evident
- mitochondrial cardiolipin oxidation in response to staurosporine (HT-1080 cells [3]): did not prevent
- lysosomal membrane destruction in response to H2O2 (HT-1080 cells [4]): did not prevent
- neutrophil infiltration and expression of CXCL-2, IL-6, KIM-1, p65 [5]: statistically significantly reduced
- serum creatinine and urea [5]: significantly reduced
- tubular injury score [5]: significantly reduced
